What was measured:
[1] = Antioxidant activity assessed as trolox equivalents of AAPH radical scavenging activity at 10 uM preincubated for 15 mins followed by AAPH addition measured every minute for 120 mins by ORAC-FL assay; assay type: functional
[2] = target: T1, Amyloid-beta precursor protein (Homo sapiens, UniProt P05067); test: Inhibition of HFIP-pretreated amyloid beta (1 to 42) (unknown origin) self-induced aggregation at 10 uM after 48 hrs by thioflavin T-based fluorometric assay relative to control
[3] = in vitro; conditions: PAMPA
Description: Permeability of the compound at 100 ug/ml after 10 hrs by PAMPA

[4] = target: T1, Amyloid-beta precursor protein; test: Inhibition of HFIP-pretreated amyloid beta (1 to 42) (unknown origin) self-induced aggregation after 48 hrs by thioflavin T-based fluorometric assay
[5] = Inhibition of Zn2+ - induced amyloid beta (1 to 42) (unknown origin) aggregation at 50 uM after 24 hrs by thioflavin T-based fluorometric assay relative to control
[6] = Inhibition of Cu2+ - induced amyloid beta (1 to 42) (unknown origin) aggregation at 50 uM after 24 hrs by thioflavin T-based fluorometric assay relative to control

T1 sequence (P05067 whole entry): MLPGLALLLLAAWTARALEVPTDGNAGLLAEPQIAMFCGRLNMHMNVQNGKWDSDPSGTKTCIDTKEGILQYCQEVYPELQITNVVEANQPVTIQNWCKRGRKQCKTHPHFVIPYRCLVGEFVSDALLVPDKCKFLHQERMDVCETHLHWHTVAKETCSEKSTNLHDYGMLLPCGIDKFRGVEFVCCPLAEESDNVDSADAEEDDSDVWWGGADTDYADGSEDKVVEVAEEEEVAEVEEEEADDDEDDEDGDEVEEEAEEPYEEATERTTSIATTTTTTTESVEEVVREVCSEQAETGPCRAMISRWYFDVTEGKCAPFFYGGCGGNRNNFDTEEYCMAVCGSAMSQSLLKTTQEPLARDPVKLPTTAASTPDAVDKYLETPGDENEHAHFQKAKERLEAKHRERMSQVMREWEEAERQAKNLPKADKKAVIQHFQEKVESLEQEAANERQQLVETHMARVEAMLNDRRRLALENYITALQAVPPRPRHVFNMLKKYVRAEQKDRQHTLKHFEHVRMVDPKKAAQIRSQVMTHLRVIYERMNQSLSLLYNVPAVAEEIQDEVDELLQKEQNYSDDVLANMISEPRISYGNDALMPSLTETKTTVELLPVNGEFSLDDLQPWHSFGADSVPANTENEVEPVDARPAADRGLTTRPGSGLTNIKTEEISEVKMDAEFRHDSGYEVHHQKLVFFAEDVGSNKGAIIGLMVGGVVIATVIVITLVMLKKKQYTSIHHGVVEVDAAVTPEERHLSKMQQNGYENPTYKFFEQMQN

SMILES	Activity [1]	inhibition [2]	Papp at 10 h, 100 ug/ml [3]	IC50 [4]	inhibition [5]	inhibition [6]
COc1ccc(CCC(=O)N2CCN(Cc3ccc(O)c4ncccc34)CC2)cc1OC	3.74 equiv	18.3%	9.67 ×10⁻⁶ cm/s	–	–	–
N#Cc1ccc(/C=C/C(=O)N2CCN(Cc3ccc(O)c4ncccc34)CC2)cc1	1.77 equiv	27.8%	–	16.8 µM	–	–
O=C(CCc1ccccc1)N1CCN(Cc2ccc(O)c3ncccc23)CC1	2.6 equiv	28.1%	–	19.7 µM	–	–
O=C(O)CCc1ccccc1	0.86 equiv	–	–	–	–	–
O=C(/C=C/c1ccccc1)N1CCN(Cc2ccc(O)c3ncccc23)CC1	1.65 equiv	55%	–	8.86 µM	66.5%	69.8%
O=C(CCc1ccc(Cl)cc1)N1CCN(Cc2ccc(O)c3ncccc23)CC1	2.57 equiv	15.6%	–	–	–	–
Oc1ccc(/C=C/c2cc(O)cc(O)c2)cc1	3.28 equiv	–	–	–	–	–
COc1ccc(CCC(=O)N2CCN(Cc3ccc(O)c4ncccc34)CC2)cc1	2.89 equiv	34.3%	–	18.3 µM	–	–
Oc1c(I)cc(Cl)c2cccnc12	0.53 equiv	25.7%	–	–	55.3%	61.4%
O=C(/C=C/c1ccccc1Cl)N1CCN(Cc2ccc(O)c3ncccc23)CC1	0.71 equiv	61.9%	6.83 ×10⁻⁶ cm/s	7.35 µM	–	–
CCn1cc(C(=O)O)c(=O)c2cc(F)c(N3CCNC(C)C3)c(F)c21 (stereo not drawn) [LOMEFLOXACIN]	–	–	1.59 ×10⁻⁶ cm/s	–	–	–
O=C(/C=C/c1ccc(F)cc1)N1CCN(Cc2ccc(O)c3ncccc23)CC1	1.45 equiv	49.9%	–	11.4 µM	–	–

Reference: ChEMBL document CHEMBL4219257, “Novel 8-hydroxyquinoline derivatives targeting β-amyloid aggregation, metal chelation and oxidative stress against Alzheimer's disease” (Bioorg Med Chem, 2018)
